Data taken from patent US10308689B2, “Dengue virus (DV) polypeptide sequences, T cell epitopes and methods and uses thereof” (LA JOLLA INSTITUTE FOR ALLERGY AND IMMUNOLOGY, priority 2010, dated 2019).
Ends that are not written are not given here.

Tests used:
[1] = tested on: PBMC of healthy adult blood donors from Colombo, Sri Lanka; experiment: Ex vivo IFNγ ELISPOT, HLA-matched PBMC of Sri Lankan blood donors; format: cell-based, human; parameters: Total Response per epitope: unit not given here; settings: for # donors responded: number of donors responding to the epitope; for T cell response [SFC]: ex vivo IFNγ SFC/10^6 PBMC; for # of responders: responding donors, HLA allele(s)
[2] = molecular target: purified HLA molecules (corresponding predicted allele); experiment: MHC peptide-binding assay, summary over alleles; parameters: species or system human
[3] = restricting HLA allele and serotype as given
[4] = total over responding donors, restricting HLA allele and serotype as given
[5] = IFNγ ELISPOT response summed over responding donors, per epitope
[6] = HLA-matched PBMC, proteome-wide screen
[7] = HLA allele, supertype and serotype
[8] = summed IFNγ ELISPOT response per epitope, HLA allele and serotype as given

Sequence | Total Response per epitope [1, 5] | # donors responded [1, 6] | also measured
KEGVFHTMW | – | – | # donors responded [1, 3]: 1; Total Response per epitope [1, 4]: 178.3
KQISNELNY | – | – | # donors responded [1, 3]: 1; Total Response per epitope [1, 4]: 26.7
KSGAIKVLK | – | – | # donors responded [1, 3]: 1; Total Response per epitope [1, 4]: 48.3
KVLNPYMPSV | 63.3 | 1 | –
KVRKDIQQW | 38.3 | 1 | IC50 ([2]; allele B*5701): 15 nM
LATGPVLTLW | – | – | # donors responded [1, 3]: 1; T cell response [SFC] ([1]; per epitope): 745 SFC; # of responders [1]: 1; Total Response per epitope [1, 4]: 745.0
LMMILPAAL | 46.7 | 1 | –
LPVWLAHKVA | 23.3 | 1 | T cell response [SFC] ([1]; per epitope): 23 SFC; # of responders [1]: 1
LPVWLAYKVA | 2426.7 | 7 | IC50 ([2]; allele B*3501): 5100 nM; T cell response [SFC] ([1]; per epitope): 2427 SFC; # of responders [1]: 7
LWEGSPGKF | 25.0 | 1 | IC50 ([2]; allele A*2402): 6160 nM
MALKDFKEF | – | – | IC50 ([2]; allele B*3501): 77 nM
MALSIVSLF | – | – | IC50 ([2]; allele B*5101): 605 nM; # donors responded [1, 3]: 1; Total Response per epitope [1, 4]: 48.3
MAVGMVSIL | 361.7 | 5 | IC50 ([2]; allele B*3501): 10 nM
MPVTVASAAQ | 51.7 | 1 | –
MVSRLLLNR | 28.3 | 1 | –
NPNMIDKTPV | 376.7 | 2 | –
NPWMEDKTPV | 191.7 | 2 | –

Sequence | Total Response per epitope [1, 5] | # donors responded [1, 6] | also measured
RASFIEVKTC | 290.0 | 2 | –
REDLWCGSL | 96.7 | 1 | –
REIPERSWNT | 1278.3 | 2 | –
REWCFTGERN | 1345.0 | 2 | –
RFLEFEALGF | 181.7 | 1 | –
RPGYHTQTA | 501.7 | 2 | –
SEMAEALKGM | 30.0 | 1 | –
SPKRLATAIA | 68.3 | 1 | –
TLMAAILAY | – | – | # donors responded [1, 3]: 1; Total Response per epitope [1, 4]: 43.3
TLMAMDLGEL | 823.3 | 1 | –
TPFGIIPAL | – | – | # of responders [1]: 1
TTKRDLGMSK | – | – | # donors responded [1, 7]: 1; Total Response per epitope [1, 8]: 35.0
VPLLAMGCY | – | – | # donors responded [1, 7]: 1; T cell response [SFC] ([1]; per epitope): 1083 SFC; # of responders [1]: 1; Total Response per epitope [1, 8]: 1083.3
WHYDQDHPY | – | – | IC50 ([2]; allele B*3501): 7600 nM
YAQMWQLMYF | 135.0 | 1 | –
YTPEGIIPTL | – | – | # donors responded [1, 7]: 1; T cell response [SFC] ([1]; per epitope): 872 SFC; # of responders [1]: 1; Total Response per epitope [1, 8]: 871.7
